Reference: patent US20230255910A1, “USE OF A CINNAMEIN COMPOSITION FOR THE TREATMENT OF GLYCINE ENCEPHALOPATHY AND UREA CYCLE DISORDERS” (Rush University Medical Center, priority 2020, published 2023)

Legend:
[1] = test system: lenti-GLDC shRNA-insulted mice; assay: Open field test of locomotor activities in lenti-GLDC shRNA-insulted mice; assay type: in vivo, C57/BL6 mice; settings: 50 mg/kg body wt/d daily via gavage, after 10 d of treatment, FIG. 1A-D
Method: C57/BL6 mice (8-10 week old) received lentiviral GLDC shRNA (1×107 IFU/mouse in 100 μl HBSS) once via tail-vein injection. Therefore, control mice also received 100 μl HBSS via tail-vein. From 7 d after lenti-GLDC shRNA injection, mice were treated with cinnamein (50 mg/kg body wt/d) and cinnamic acid (50 mg/kg body wt/d) daily via gavage. After 10 d of treatment, locomotor activities were monitored by open field (FIG. 1A, heat map; FIG. 1B, distance traveled; FIG. 1C, velocity; FIG. 1D, center zone frequency). Results are mean+SEM of five mice per group. *p<0.05; **p<0.01; ***p<0.001.
C57/BL6 mice (8-10 week-old) received lentiviral GLDC shRNA (1×107 IFU/mouse in 100 μl Hank's Balanced Salt Solution or HBSS) once via tail-vein injection. The group of control mice received only 100 μl HBSS via tail-vein injection. Oral administration of cinnamein occurred from 7 d after lenti-GLDC shRNA injection. Mice were treated with 50 mg/kg body wt/d of cinnamein daily via gavage. Cinnamein (Sigma) was solubilized in 100 μl 0.5% methyl cellulose before gavage. […]
After 10 d of treatment with cinnamein and cinnamic acid, mice were monitored for locomotor activities by open field test. […] Each mouse was placed individually on the center of the arena and the performance was monitored by the live video tracking system.

[2] = test system: lenti-GLDC shRNA-insulted mice; assay: Barnes maze, spatial learning and memory in lenti-GLDC shRNA-insulted mice; assay type: in vivo, C57/BL6 mice; settings: 50 mg/kg body wt/d daily via gavage, after 10 d of treatment; for latency in reaching the target hole: FIG. 2B; for errors in reaching the target hole: FIG. 2C
Method: C57/BL6 mice (8-10 week old) received lentiviral GLDC shRNA (1×107 IFU/mouse in 100 μl HBSS) once via tail-vein injection. Therefore, control mice also received 100 μl HBSS via tail-vein. From 7 d after lenti-GLDC shRNA injection, mice were treated with cinnamein (50 mg/kg body wt/d) and cinnamic acid (50 mg/kg body wt/d) daily via gavage. After 10 d of treatment, spatial learning and memory was monitored by Barnes maze (A, heat map; B, latency; C, errors). Results are mean+SEM of five mice per group. *p<0.05; **p<0.01; ***p<0.001.
(§1) C57/BL6 mice (8-10 week-old) received lentiviral GLDC shRNA (1×107 IFU/mouse in 100 μl Hank's Balanced Salt Solution or HBSS) once via tail-vein injection. The group of control mice received only 100 μl HBSS via tail-vein injection. Oral administration of cinnamein occurred from 7 d after lenti-GLDC shRNA injection. Mice were treated with 50 mg/kg body wt/d of cinnamein daily via gavage. Cinnamein (Sigma) was solubilized in 100 μl 0.5% methyl cellulose before gavage. Therefore, one group of lenti-GLDC shRNA-insulted mice were also treated with 100 μl 0.5% methyl cellulose as vehicle control. For comparison, one group of lenti-GLDC shRNA-insulted mice were also treated with 50 mg/kg body wt/d of cinnamic acid daily via gavage.
Next, mice were monitored for spatial learning and memory by Barnes maze. Here, mice were trained for two consecutive days followed by examination on day three. During training, the overnight food-deprived mouse was placed in the middle of the maze in a 10 cm high cylindrical start chamber. After 10 s, the start chamber was removed to allow the mouse to move around the maze to find out the color food chips in the baited tunnel.

[3] = test system: lenti-GLDC shRNA-insulted mice; assay: Level of glycine in serum and cortex of lenti-GLDC shRNA-insulted mice (fluorometric assay kit); assay type: in vivo, C57/BL6 mice; settings: 50 mg/kg body wt/d daily via gavage, 14 d of treatment; for level of glycine in serum: FIG. 3A; for level of glycine in cortex: FIG. 3B
Method: C57/BL6 mice (8-10 week old) received lentiviral GLDC shRNA (1×107 IFU/mouse in 100 μl Hank's Balanced Salt Solution or HBSS) once via tail-vein injection. Therefore, control mice also received 100 μl HBSS via tail-vein. From 7 d after lenti-GLDC shRNA injection, mice were treated with cinnamein (50 mg/kg body wt/d) and cinnamic acid (50 mg/kg body wt/d) daily via gavage. After 14 d of treatment, the level of glycine was measured in serum (A) and cortex (B) by using a fluorometric assay kit (Biovision). Each mouse sample was run in triplicate. Results are mean+SEM of five mice per group. ***p<0.001.
as §1
(§2) On 14 d of treatment, mice were sacrificed, and level of glycine was measured in serum and brain.

[4] = Observation of side effects during drug treatment; assay type: in vivo, C57/BL6 mice; settings: 50 mg/kg body wt/d daily via gavage, during drug treatment (14 d)
Method: as §1, §2

[5] = test system: B6EiC3Sn a/A-Otc^spf-ash/J (Otc^spf-ash) mice; assay: Barnes maze, cognitive functions in OTC knockout mice (animal model of urea cycle disorders); assay type: in vivo; settings: 50 mg/kg body weight/d orally via gavage for 15 days, FIG. 4A-C
Method: Eight-week old B6EiC3Sn a/A-Otc^spf-ash/J (Otc^spf-ash) mice were treated with cinnamein (50 mg/kg body weight/d) and cinnamic acid (50 mg/kg body weight/d) orally via gavage for 15 days followed by monitoring cognitive functions by Barnes maze (FIG. 4A, representative track plots summarizing the overall activity of mice on the apparatus recorded with a Noldus camera and visualized by Ethovision XT software; FIG. 4B, errors; FIG. 4C, latency). Results are mean+SEM of three mice per group. ***p<0.001.
Cognitive deficit is common in individuals with inherited urea cycle disorders (UCDs). […] See for example Qureshi et al., “Ornithine Transcarbamylase Deficiency in Mutant Mice I. Studies on the Characterization of Enzyme Defect and Suitability as Animal Model of Human Disease,” (1979) Pediat. Res. 13: pp 807-811; Hodges et al., “The spf^ash mouse: A missense mutation in the ornithine transcarbamylase gene also causes aberrant mRNA splicing,” (1989) Proc. Natl. Acad. Sci. USA 86: pp. 4142-4146. OTC knockout B6EiC3Sn a/A-Otc^spf-ash/J (Otc^spf-ash) mice were obtained from the Jackson Lab. Cinnamein was purchased from Sigma. Cinnamic acid was bought from Spectrum Chemicals.

## O=C(C=Cc1ccccc1)OCc1ccccc1 [cinnamein, 3-phenyl-2-propenoic acid phenylmethyl ester]
[1]
  locomotor activities (heat map, total distance travelled, velocity, center zone frequency): improved locomotor activities
[2]
  latency in reaching the target hole: significantly reduced
  errors in reaching the target hole: significantly reduced
[3]
  level of glycine in serum: significantly inhibited
  level of glycine in cortex: significantly inhibited
[4]
  side effects including hair loss, weight loss, diarrhea, or untoward infection: No other side effects were observed
[5]
  cognitive functions (Barnes maze errors and latency): recovers cognitive functions

## O=C(O)C=Cc1ccccc1 [cinnamic acid]
[1]
  locomotor activities (heat map, total distance travelled, velocity, center zone frequency): improved locomotor activities
[2]
  latency in reaching the target hole: significantly reduced
  errors in reaching the target hole: significantly reduced
[3]
  level of glycine in serum: significantly inhibited
  level of glycine in cortex: significantly inhibited
[4]
  side effects including hair loss, weight loss, diarrhea, or untoward infection: No other side effects were observed
[5]
  cognitive functions (Barnes maze errors and latency): recovers cognitive functions
